In patent US11793823B2, “Compounds and pharmaceutical uses thereof” (SyneuRx International (Taiwan) Corp., priority 2020, dated 2023):
Like-named read-outs stand apart in the source and are kept apart here.

Columns and labels:
[1] = tested on: MK-801 treated mice; assay: Open field test, MK-801 induced hyper-locomotion; type: in vivo; details: for relief of MK801-induced hyperactivity: MK-801 0.2 mg/kg i.p., open field
Description: (§1) C57BL/6J male mice were group housed (3-5 mice per cage) with food and water available ad libitum in polysulfone ventilated cages (Alternative Design, AR, USA) in the animal room of SyneuRx. The colony was maintained on a 12/12-h light/dark cycle at the temperature of 22±2° C. and all behavioral studies were performed during the dark cycle. All animals used in this study were adult mice (at least 2.5 months of age). All animal procedures were performed according to the protocols approved by Institutional Animal Care and Use Committee (IACUC).
(§2) The mice were randomly assigned into five groups for open field test, Group 1: vehicle control, Group 2: MK-801, Group 3: Compound 66 at 10 mg/kg+MK-801, Group 4: Compound 66 at 30 mg/kg+MK-801, Group 5: Compound 66 at 100 mg/kg+MK-801. Mice at Group 2-5 received an acute administration of MK-801 (Sigma-Aldrich USA), a NMDA receptor antagonist, dissolved in normal saline, at 0.2 mg/kg for open field. For pre-pulse inhibition (PPI) test, animal was randomly assigned for four groups, Group 1: vehicle control, Group 2: MK-801, Group 3: Compound 66 at 3 mg/kg+MK-801, Group 4: Compound 66 at 10 mg/kg. Group 2-4 was received 0.3 mg/kg, MK-801. MK-801 was administrated by i.p. injection 20 minutes prior to open field and PPI tests. Test article, compound 66 (dissolved in ddH2O with 65% PEG400 and 10% DMSO), was orally treated 20 minutes prior to the MK-801 administration.
The open field task is a common measurement of novelty induced exploratory behavior and general activity in both mice and rats. The objective of this experiment was to evaluate the efficacy of compound 66 on attenuating the MK-801 induced hyper-locomotion. In this study, the mice were placed in a Plexiglas cage (37.5 cm×21.5 cm×18 cm) under 50-65 lux light intensity. Their spontaneous locomotor activities were measured for 60 minutes using the Photobeam Activity System (PAS)-open field (San Diego Instruments, San Diego, CA, USA). The total number of photo beam breaks of each mouse was measured as an index of locomotion activity.
as §2, with “74” for “66”, “field test.” for “field.”
(§3) All mice were tested with open field and pre-pulse inhibition tasks. The open field and pre-pulse inhibition tasks were used to evaluate the efficacy of the compound 74 on attenuating the MK-801 induced hyper-locomotion and deficit of sensorimotor gating function in mice, respectively. The apparatus and recording method of open field and pre-pulse inhibition task were as described above in Example 45.
Mice at Group 2-5 received an acute administration of MK-801 (Sigma-Aldrich USA), a NMDA receptor antagonist, dissolved in normal saline, at 0.2 mg/kg for open field test. […] Group […] was received 0.3 mg/kg, MK-801. MK-801 was administrated by i.p. injection 20 minutes prior to open field and PPI tests.
The open field task is a common measurement of novelty induced exploratory behavior and general activity in both mice and rats. […] In this study, the mice were placed in a Plexiglas cage (37.5 cm×21.5 cm×18 cm) under 50-65 lux light intensity. […]

[2] = tested on: MK-801 treated mice; assay: Pre-pulse inhibition (PPI) test, MK-801 induced deficit of sensorimotor gating; type: in vivo; details: MK-801 0.3 mg/kg i.p.
Description: as §1, §2
Pre-pulse inhibition, using SR-LAB startle apparatus (San Diego Instruments, San Diego, CA, USA), was used to determine the efficacy of compound 66 on attenuating the MK-801 induced deficit of sensorimotor gating function in mice. Under 65 dB background noise, each session was composed of a 5-minute accumulation period followed by 64 trials in four blocks. The pulse alone (PA) trial was a 40 ms, 120 dB white noise burst. In the prepulse (pp)+pulse trials, a 20 ms white noise prepulse stimuli of 71 dB (pp6), 75 dB (pp10), and 83 dB (pp18) were presented 100 ms before a 40 ms 120 dB pulse. The non-stimulus (NS) trials presented the background noise only. The initial and the last blocks were composed of six PA trials, respectively. Two middle blocks consisted of PA, pp+pulse, and NS trials. These trials were presented pseudo-randomly and separated by intertribal intervals of 15 seconds on average (varying between 10 to 20 s). The percentage of prepulse inhibition was evaluated by the following formula: % PPI=100×[(PA score)−(pp-P score)]/(PA score), where the PA score was the average of the PA value in the middle blocks.
as §2, with “74” for “66”, “field test.” for “field.”
as §3, with “45. […]” for “45.”

[3] = target: SARS-CoV-2 3CLPro (Severe acute respiratory syndrome coronavirus 2 (2019-nCoV) (SARS-CoV-2), UniProt P0DTD1); assay: biochemical; details: final DMSO concentration 2%
[4] = target: human D-amino acid oxidase (hDAAO) (Homo sapiens (Human), UniProt P14920); assay: In vitro human D-amino acid oxidase (hDAAO) activity, D-Serine/Amplex Red fluorescence; type: biochemical; details: D-Serine substrate, 20 min
Chain of human D-amino acid oxidase (hDAAO) (P14920 whole entry): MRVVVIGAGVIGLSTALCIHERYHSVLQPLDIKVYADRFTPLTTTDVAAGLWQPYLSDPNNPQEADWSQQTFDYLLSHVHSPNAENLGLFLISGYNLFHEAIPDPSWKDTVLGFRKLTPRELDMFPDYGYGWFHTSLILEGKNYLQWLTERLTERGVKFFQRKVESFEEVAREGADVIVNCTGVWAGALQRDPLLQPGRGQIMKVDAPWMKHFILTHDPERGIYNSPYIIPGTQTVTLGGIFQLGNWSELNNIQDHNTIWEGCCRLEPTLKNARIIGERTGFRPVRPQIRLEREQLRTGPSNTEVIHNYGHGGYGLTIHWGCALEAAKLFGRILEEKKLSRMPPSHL
Outline: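 Recombinant hDAAO activity with D-serine as substrate; H2O2 was coupled via HRP to Amplex Red and fluorescence read at ex 530/em 590 nm at 0 and 20 min, dark, room temperature, Tris pH 8.5 with FAD. Inhibition came from the 20–0 min signal change relative to DMSO, and IC50 from nonlinear fits of 3-fold dilutions run in triplicate.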

[5] = 75 dB and 83 dB pre-pulse, 10 mg/kg oral

| SMILES | effect on MK-801 induced hyper-locomotion vs MK-801 group ([1]; 30 mg/kg and 100 mg/kg oral) | effect on MK-801 induced hyper-locomotion vs MK-801 group ([1]; low dose 10 mg/kg oral) | relief of MK801-induced hyperactivity ([1]; middle (30 mg/kg) and high dose (100 mg/kg) oral as worded) [%] | effect on pre-pulse inhibition vs MK-801 group [2, 5] | IC50 ([3]; read-out: IC50) [µM] | IC50 ([3]; read-out: IC50 (μg/mL) (converted)) [µM] | IC50 [4] [µM] | effect on MK-801 induced hyper-locomotion vs MK-801 group ([1]; 10, 30 and 100 mg/kg oral, dose-dependent) | relief of MK801-induced hyperactivity ([1]; high dose 100 mg/kg oral) [%] | effect on pre-pulse inhibition vs MK-801 group ([2]; 71 dB pre-pulse, 10 mg/kg oral) | effect on pre-pulse inhibition vs MK-801 group ([2]; 75 dB and 83 dB pre-pulse, 3 mg/kg oral) |
| --- | --- | --- | --- | --- | --- | --- | --- | --- | --- | --- | --- |
| O=C(O)c1cc(O)c(O)c(OC(=O)c2cc(O)c(O)c(OC(=O)c3cc(O)c(O)c(OC(=O)c4cc(O)c(O)c(OC(=O)c5cc(O)c(O)c(OC(=O)c6cc(CCc7ccccc7C(F)(F)F)n[nH]6)c5)c4)c3)c2)c1 [Compound 74, 3-((3-((3-((3-((3,4-dihydroxy-5-((3-(2-(trifluoromethyl)phenethyl)-1H-pyrazole-5-carbonyl)oxy)benzoyl)oxy)-4,5-dihydroxybenzoyl)oxy)-4,5-dihydroxybenzoyl)oxy)-4,5-dihydroxybenzoyl)oxy)-4,5-dihydroxybenzoic acid] | significantly reduced | marginally lower locomotion activity | 69 | significantly improved PPI | > 31.2 | > 31.2 | 0.031 | – | – | – | – |
| O=C(O)c1cc(O)c(O)c(OC(=O)c2cc(O)c(O)c(OC(=O)c3cc(O)c(O)c(OC(=O)c4cc(O)c(O)c(OC(=O)c5cc(O)c(O)c(OC(=O)c6cc(CCc7ccc(C(F)(F)F)cc7)n[nH]6)c5)c4)c3)c2)c1 [Compound 66, 3-((3-((3-((3-((3,4-dihydroxy-5-((3-(4-(trifluoromethyl)phenethyl)-1H-pyrazole-5-carbonyl)oxy)benzoyl)oxy)-4,5-dihydroxybenzoyl)oxy)-4,5-dihydroxybenzoyl)oxy)-4,5-dihydroxybenzoyl)oxy)-4,5-dihydroxybenzoic acid] | – | – | – | significantly higher percentage of pre-pulse inhibition | – | – | 0.025 | significantly reduced | 67 | relieve PPI deficit to basal level | marginal improvement |
